Two molecules from patent publication US20180105838A1, “PROCESS FOR DE NOVO MICROBIAL SYNTHESIS OF TERPENES” (BASF SE, priority 2015, published 2018) can be followed below.

Data set [1] concerns Methylobacterium extorquens AM1. Type of data set: cell-based. As for the experimental part: (§1) 1.6 Dodecane and α-Humulene Tolerance of M. extorquens AM1
M. extorquens AM1 precultures were cultured in test tubes with 5 ml methanol minimal medium (MM) for 48 h. The tolerance of M. extorquens AM1 towards 20% (v/v) dodecane was studied by growth comparison ( OD600) of cultures containing 15 ml MM and cultures with 12 ml MM and 3 ml dodecane. The cultures for the growth comparison with and without dodecane were inoculated from one preculture.

For data set [2] the test system is unchanged. Put plainly: α-humulene tolerance of M. extorquens AM1 (growth rate comparison, OD600). Type of data set: cell-based. Conditions: FIG. 3. As for the experimental part:
as §1
The α-humulene tolerance was tested in two ways: tolerance towards α-humulene added directly to the aqueous phase and tolerance towards α-humulene dissolved in the organic dodecane layer. For the first experiment, pure α-humulene dissolved in ethanol was added to 100 ml baffled shaker flasks containing 15 ml MM with end concentrations of α-humulene of 1000, 500, 250, 100, 50, 25, 10 and 5 mg/L. Corresponding quantities of ethanol were added to the MM as negative controls. The flasks with the different α-humulene concentrations and the corresponding negative controls were inoculated with a preculture without α-humulene to an OD600 of 0.1. The OD600 was recorded over 30 h.
For the second said experiment, pure α-humulene was dissolved in dodecane and solutions with 1000, 500, 100, 50 and 10 mg/L α-humulene prepared. Two cultures each with 12 ml MM and 3 ml dodecane for each α-humulene concentration were inoculated to an OD600 of 0.1 from a preculture of M. extorquens AM1 without dodecane. Cultures with dodecane without α-humulene were used as negative controls. OD600 was measured over 30 h.
Terpenes often have toxic effects on bacteria. The toxicity of α-humulene to M. extorquens was studied by growth analyses in the presence of different α-humulene concentrations. […]

On to `CCCCCCCCCCCC` [dodecane], for which, in data set [1], the “toxic effects or influence on growth” value was “without any toxic effects or influence on growth being observable”.
In the case of `C/C1=C\CC/C(C)=C/CC(C)(C)/C=C/C1` [α-humulene], the “growth-inhibiting effect (growth rate μ compared with μmax without α-humulene)” value in data set [2] (α-humulene dissolved directly in the aqueous phase, even at concentrations of 1 g/l) is listed as “only minimal growth-inhibiting effects”. Further, the “influence on growth (growth rate μ compared with μmax without α-humulene)” value in data set [2] (α-humulene dissolved in the dodecane phase as second organic phase) is “slightly lesser influence than in the aqueous phase”.
